Several values for one entry are separate records, joined by “and”; a condition that tells them apart may be missing. Equal entries are not always repeated. Inconclusive results and toxic doses are left out.
Tested on: BDF1 mice, P388 leukemia ip, median survival T/C
Assay: NCI In Vivo Anticancer Drug Screen. Data for tumor model P388 Leukemia (intraperitoneal) in B6D2F1 (BDF1) mice
Conditions: endpoint: median survival time, higher = longer survival
In short: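 Reported as T/C, where T is the survival measurement in dosed animals and C the same measurement in vehicle controls.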

[1] = dose: 4.0 mg/kg/injection, schedule: Q01DX009 (ip), vehicle: saline
[2] = dose: 25.0 mg/kg/injection, schedule: Q01DX009 (ip), vehicle: saline
[3] = dose: 100.0 mg/kg/injection, schedule: Q04DX003 (ip), vehicle: saline with Tween-80
[4] = dose: 100.0 mg/kg/injection, schedule: Q01DX009 (ip), vehicle: Klucel (hydroxypropylcellulose) (HPC)
[5] = dose: 100.0 mg/kg/injection, schedule: Q04DX003 (ip), vehicle: saline sonified
[6] = dose: 200.0 mg/kg/injection, schedule: Q01DX009 (ip), vehicle: Klucel (hydroxypropylcellulose) (HPC)
[7] = dose: 200.0 mg/kg/injection, schedule: Q04DX003 (ip), vehicle: saline sonified
[8] = dose: 400.0 mg/kg/injection, schedule: Q01DX009 (ip), vehicle: Klucel (hydroxypropylcellulose) (HPC)
[9] = dose: 400.0 mg/kg/injection, schedule: Q04DX003 (ip), vehicle: saline sonified
[10] = dose: 100.0 mg/kg/injection, schedule: Q01DX009 (ip), vehicle: saline with Tween-80
[11] = dose: 200.0 mg/kg/injection, schedule: Q01DX009 (ip), vehicle: saline with Tween-80
[12] = dose: 200.0 mg/kg/injection, schedule: Q04DX003 (ip), vehicle: saline with Tween-80
[13] = dose: 400.0 mg/kg/injection, schedule: Q04DX003 (ip), vehicle: saline with Tween-80
[14] = dose: 100.0 mg/kg/injection, schedule: Q04DX003 (ip), vehicle: Klucel (hydroxypropylcellulose) (HPC)
[15] = dose: 200.0 mg/kg/injection, schedule: Q04DX003 (ip), vehicle: Klucel (hydroxypropylcellulose) (HPC)
[16] = dose: 400.0 mg/kg/injection, schedule: Q04DX003 (ip), vehicle: Klucel (hydroxypropylcellulose) (HPC)

Cc1cc2c([nH]c1=O)C(=O)c1c(O)cccc1C2=O
T/C (dose: 2.5 mg/kg/injection, schedule: Q01DX009 (ip), vehicle: Klucel (hydroxypropylcellulose) (HPC)): 103 % of control
T/C (dose: 5.0 mg/kg/injection, schedule: Q01DX009 (ip), vehicle: Klucel (hydroxypropylcellulose) (HPC)): 108 % of control
T/C (dose: 10.0 mg/kg/injection, schedule: Q01DX009 (ip), vehicle: Klucel (hydroxypropylcellulose) (HPC)): 103 % of control
T/C (dose: 20.0 mg/kg/injection, schedule: Q01DX009 (ip), vehicle: Klucel (hydroxypropylcellulose) (HPC)): 104 % of control
T/C (dose: 40.0 mg/kg/injection, schedule: Q01DX009 (ip), vehicle: Klucel (hydroxypropylcellulose) (HPC)): 95 % of control
T/C (dose: 80.0 mg/kg/injection, schedule: Q01DX009 (ip), vehicle: Klucel (hydroxypropylcellulose) (HPC)): 115 % of control

Nc1nc(-c2ccccc2)ns1
T/C (dose: 25.0 mg/kg/injection, schedule: Q01DX009 (ip), vehicle: saline sonified): 100 % of control
T/C (dose: 50.0 mg/kg/injection, schedule: Q01DX009 (ip), vehicle: saline sonified): 100 % of control

N.N.N.NC(Cc1cnc[nH]1)C(=O)[O-].O=[N+]([O-])[O-].[Co+3] (stereo not given)
T/C (dose: 2.0 mg/kg/injection, schedule: Q01DX009 (ip), vehicle: saline): 89 % of control
T/C [1]: 95 % of control and 110 % of control and 113 % of control
T/C (dose: 8.0 mg/kg/injection, schedule: Q01DX009 (ip), vehicle: saline): 100 % of control and 110 % of control
T/C (dose: 20.0 mg/kg/injection, schedule: Q01DX009 (ip), vehicle: saline): 120 % of control
T/C [2]: 90 % of control

CC(C)C1=CC23CCC4C(C)(C(N)=O)CCCC4(C)C2CC1C1C(=O)OC(=O)C13 (stereo not given)
T/C (dose: 12.5 mg/kg/injection, schedule: Q01DX001 (ip), vehicle: saline with Tween-80): 100 % of control
T/C (dose: 25.0 mg/kg/injection, schedule: Q01DX001 (ip), vehicle: saline with Tween-80): 108 % of control
T/C (dose: 50.0 mg/kg/injection, schedule: Q01DX001 (ip), vehicle: saline with Tween-80): 104 % of control

CCOC(=O)C[n+]1ccccc1
T/C [2]: 100 % of control
T/C (dose: 50.0 mg/kg/injection, schedule: Q01DX009 (ip), vehicle: saline): 118 % of control
T/C (dose: 50.0 mg/kg/injection, schedule: Q04DX003 (ip), vehicle: saline with Tween-80): 90 % of control
T/C (dose: 75.0 mg/kg/injection, schedule: Q04DX003 (ip), vehicle: saline): 104 % of control
T/C (dose: 100.0 mg/kg/injection, schedule: Q01DX009 (ip), vehicle: saline): 90 % of control
T/C [3]: 90 % of control
T/C (dose: 150.0 mg/kg/injection, schedule: Q04DX003 (ip), vehicle: saline): 109 % of control

O=C(/C=C\c1ccc2c(c1)OCO2)/C=C/c1ccc2c(c1)OCO2
T/C [4]: 104 % of control
T/C [5]: 100 % of control
T/C [6]: 100 % of control
T/C [7]: 109 % of control
T/C [8]: 95 % of control
T/C [9]: 100 % of control

NC(=O)c1ccc(Cl)c(Cl)c1
T/C (dose: 100.0 mg/kg/injection, schedule: Q04DX003 (ip), vehicle: other): 116 % of control
T/C (dose: 200.0 mg/kg/injection, schedule: Q04DX003 (ip), vehicle: other): 122 % of control

Nc1nc(N)nc(N)n1
T/C [4]: 90 % of control
T/C [6]: 90 % of control
T/C [8]: 100 % of control
T/C (dose: 800.0 mg/kg/injection, schedule: Q01DX009 (ip), vehicle: Klucel (hydroxypropylcellulose) (HPC)): 100 % of control
T/C (dose: 2000.0 mg/kg/injection, schedule: Q01DX009 (ip), vehicle: Klucel (hydroxypropylcellulose) (HPC)): 95 % of control

CCOC(=O)C1CC1C(=O)O (stereo not given)
T/C (dose: 100.0 mg/kg/injection, schedule: Q04DX003 (ip), vehicle: saline): 103 % of control
T/C (dose: 200.0 mg/kg/injection, schedule: Q04DX003 (ip), vehicle: saline): 114 % of control

CNC(=O)C(C)(C)c1ccccc1
T/C [4]: 90 % of control
T/C [6]: 90 % of control
T/C [8]: 104 % of control

NC1CSSC1
T/C (dose: 0.39 mg/kg/injection, schedule: Q01DX009 (ip), vehicle: water): 93 % of control and 108 % of control
T/C (dose: 1.56 mg/kg/injection, schedule: Q04DX003 (ip), vehicle: water): 97 % of control
T/C (dose: 3.12 mg/kg/injection, schedule: Q04DX003 (ip), vehicle: water): 106 % of control
T/C (dose: 6.25 mg/kg/injection, schedule: Q01DX009 (ip), vehicle: water): 91 % of control and 94 % of control and 96 % of control
T/C (dose: 6.25 mg/kg/injection, schedule: Q04DX003 (ip), vehicle: water): 105 % of control

CC(=O)OCC(OC(C)=O)C(OC(C)=O)C(OC(C)=O)C(C#N)OC(C)=O (stereo not given)
T/C (dose: 75.0 mg/kg/injection, schedule: Q01DX009 (ip), vehicle: saline with Tween-80): 100 % of control
T/C [10]: 105 % of control
T/C [3]: 100 % of control
T/C (dose: 150.0 mg/kg/injection, schedule: Q01DX009 (ip), vehicle: saline with Tween-80): 100 % of control
T/C [11]: 120 % of control
T/C [12]: 100 % of control
T/C [13]: 100 % of control

Cc1cc(N(CCCl)CCCl)ccc1C=Nc1cccnc1
T/C (dose: 50.0 mg/kg/injection, schedule: Q01DX009 (ip), vehicle: Klucel (hydroxypropylcellulose) (HPC)): 100 % of control and 113 % of control
T/C (dose: 50.0 mg/kg/injection, schedule: Q04DX003 (ip), vehicle: Klucel (hydroxypropylcellulose) (HPC)): 100 % of control
T/C [4]: 152 % of control
T/C [14]: 95 % of control
T/C [6]: 150 % of control and 156 % of control
T/C [15]: 120 % of control
T/C [8]: 169 % of control and 190 % of control
T/C [16]: 120 % of control

CCOc1ccccc1NC1=C(OC)C(=O)C(Nc2ccccc2OCC)=C(OC)C1=O
T/C [4]: 100 % of control
T/C [14]: 91 % of control
T/C [6]: 95 % of control
T/C [15]: 91 % of control and 100 % of control
T/C [8]: 100 % of control
T/C [16]: 86 % of control

CC(=O)[O][Hg][c]1s[c]([Hg][O]C(C)=O)[c]([Hg][O]C(C)=O)[c]1[Hg][O]C(C)=O
T/C (dose: 1.0 mg/kg/injection, schedule: Q01DX009 (ip), vehicle: Klucel (hydroxypropylcellulose) (HPC)): 101 % of control
T/C (dose: 2.0 mg/kg/injection, schedule: Q01DX009 (ip), vehicle: Klucel (hydroxypropylcellulose) (HPC)): 100 % of control
T/C (dose: 2.6 mg/kg/injection, schedule: Q01DX009 (ip), vehicle: saline): 118 % of control
T/C (dose: 3.8 mg/kg/injection, schedule: Q04DX003 (ip), vehicle: saline): 95 % of control
T/C (dose: 4.0 mg/kg/injection, schedule: Q01DX009 (ip), vehicle: Klucel (hydroxypropylcellulose) (HPC)): 102 % of control
T/C [1]: 118 % of control
T/C (dose: 6.0 mg/kg/injection, schedule: Q01DX009 (ip), vehicle: Klucel (hydroxypropylcellulose) (HPC)): 101 % of control
T/C (dose: 6.0 mg/kg/injection, schedule: Q01DX009 (ip), vehicle: saline): 118 % of control
T/C (dose: 7.5 mg/kg/injection, schedule: Q04DX003 (ip), vehicle: saline): 100 % of control
T/C (dose: 9.0 mg/kg/injection, schedule: Q01DX009 (ip), vehicle: Klucel (hydroxypropylcellulose) (HPC)): 103 % of control
T/C (dose: 9.0 mg/kg/injection, schedule: Q01DX009 (ip), vehicle: saline): 118 % of control

COC(=O)c1ccc(OCCOc2ccc(C(C)(C)CC(C)(C)C)cc2)c([N+](=O)[O-])c1
T/C [5]: 100 % of control
T/C [7]: 86 % of control
T/C [9]: 86 % of control

O=C1C(NCCO)=C(N2CC2)C(=O)C(NCCO)=C1N1CC1
T/C (dose: 0.18 mg/kg/injection, schedule: Q01DX009 (ip), vehicle: saline): 248 % of control and 93 % of control
T/C (dose: 0.37 mg/kg/injection, schedule: Q01DX009 (ip), vehicle: saline): 275 % of control and 203 % of control
T/C (dose: 0.75 mg/kg/injection, schedule: Q01DX009 (ip), vehicle: saline): 194 % of control

CC/C(=C(\CC)c1ccc(OC)cc1)c1ccc(OC)cc1
T/C (dose: 50.0 mg/kg/injection, schedule: Q01DX009 (ip), vehicle: saline with Tween-80): 90 % of control
T/C [10]: 90 % of control
T/C [3]: 86 % of control
T/C [11]: 90 % of control
T/C [12]: 90 % of control
T/C [13]: 95 % of control

— PubChem BioAssay AID328 (DTP/NCI, 2004)
